Results: ChEMBL document CHEMBL2346659, “Anti-adipogenic diarylheptanoids from Alnus hirsuta f. sibirica on 3T3-L1 cells” (Bioorg Med Chem Lett, 2013)
Activity calls are given as the source filed them. The rule behind the calls is not given here.

Legend:
[1] = test system: 3T3-L1; experiment: Inhibition of differentiation of mouse 3T3L1 cells assessed as lipid accumulation at 50 uM after 8 days by using Oil Red O staining by spectrophotometry relative to control; type: functional
[2] = test system: 3T3-L1; experiment: Cytotoxicity against mouse 3T3L1 cells at 100 uM; type: cell-based; settings: 3t3-l1, 100 µM
[3] = test system: 3T3-L1; experiment: Inhibition of differentiation of mouse 3T3L1 cells assessed as lipid accumulation at 10 uM after 8 days by using Oil Red O staining by spectrophotometry relative to control; type: functional
[4] = test system: 3T3-L1; experiment: Inhibition of differentiation of mouse 3T3L1 cells assessed as lipid accumulation at 100 uM after 8 days by using Oil Red O staining by spectrophotometry relative to control; type: functional
[5] = test system: 3T3-L1; experiment: Inhibition of differentiation of mouse 3T3L1 cells assessed as reduction of lipid accumulation after 8 days by using Oil Red O staining by spectrophotometry relative to control; type: functional, cell-based
[6] = test system: 3T3-L1; experiment: Antiadipogenic activity in mouse 3T3L1 cells assessed as inhibition of C/EBPalpha expression at 10 to 50 uM after 8 days by Western blot analysis; type: functional, cell-based
[7] = test system: 3T3-L1; experiment: Antiadipogenic activity in mouse 3T3L1 cells assessed as inhibition of PPAR-gamma expression at 10 to 50 uM after 8 days by Western blot analysis; type: functional, cell-based
[8] = test system: 3T3-L1; experiment: Inhibition of differentiation of mouse 3T3L1 cells assessed as lipid accumulation at 100 uM after 8 days by using Oil Red O staining by spectrophotometry relative to control in presence of troglitazone; type: functional; set-up: scale not given: the % may be the effect or the level left
[9] = test system: 3T3-L1; experiment: Induction of differentiation of mouse 3T3L1 cells assessed as lipid accumulation at 10 uM after 8 days by using Oil Red O staining by spectrophotometry relative to control; type: cell-based; settings: 3t3-l1, 192 h

Row | Activity [9] [%] | Structure (SMILES) | Lipid accumulation (% of control) [1] [%] | Activity [2] | Lipid accumulation relative to control [3] [%] | Lipid accumulation (% of control) [4] [%] | inhibition [5] | inhibition [6] | inhibition [7] | Activity [8] [%]
1 | – | Oc1ccc(CC[C@@H](O)C[C@H](O)CCc2ccc(O)cc2)cc1 [(+)-HANNOKINOL] | 61.2 | Toxic | 90.2 | – | – | – | – | –
2 | – | O=C(CCc1ccc(O)c(O)c1)C[C@@H](O)CCc1ccc(O)c(O)c1 [HIRSUTANONOL] | 72.6 | – | 83.9 | 59.9 | Dose-dependent effect | – | – | –
3 | – | O=C(/C=C/CCc1ccc(O)c(O)c1)CCc1ccc(O)c(O)c1 [DEHYDROHIRSUTANONOL] | 45.7 | – | 86.1 | 38.6 | Dose-dependent effect | – | – | –
4 | – | O=C(CCc1ccc(O)cc1)C[C@@H](O)CCc1ccc(O)c(O)c1 | 70.5 | – | 77.3 | 57.6 | Dose-dependent effect | – | – | –
5 | – | O=C(CCc1ccc(O)cc1)C[C@H](CCc1ccc(O)cc1)O[C@@H]1OC[C@@H](O)[C@H](O)[C@H]1O | 28.9 | – | 81.7 | 14.4 | Dose-dependent effect | Active | Active | 20.8
6 | – | Oc1ccc(CCCC[C@@H](O)CCc2ccc(O)c(O)c2)cc1O | 86.4 | – | 84.6 | 90 | – | – | – | –
7 | – | O=C(O[C@@H]1Cc2c(O)cc(O)cc2O[C@@H]1c1cc(O)c(O)c(O)c1)c1cc(O)c(O)c(O)c1 [EPIGALOCATECHIN GALLATE] | 81.9 | – | 94.9 | 54.5 | – | – | – | –
8 | – | O=C(/C=C/C=C/c1ccc(O)c(O)c1)CCc1ccc(O)c(O)c1 | 108.9 | – | 104.4 | 103 | – | – | – | –
9 | 107.1 | Cc1c(C)c2c(c(C)c1O)CCC(C)(COc1ccc(CC3SC(=O)NC3=O)cc1)O2 (stereo not drawn) [TROGLITAZONE] | – | – | – | – | – | – | – | –
10 | – | O=C(/C=C/CCc1ccc(O)c(O)c1)/C=C/c1ccc(O)c(O)c1 | 66.5 | – | 86.5 | 36.5 | Dose-dependent effect | – | – | –
11 | – | OC[C@H]1O[C@@H](O[C@H](CCCCc2ccc(O)cc2)CCc2ccc(O)cc2)[C@H](O)[C@@H](O)[C@@H]1O | 103.1 | – | 76 | 98.1 | – | – | – | –
12 | – | O=C(/C=C/c1ccc(O)c(O)c1)C[C@@H](O)CCc1ccc(O)cc1 | 81.8 | – | 92.6 | 58.8 | Dose-dependent effect | – | – | –
